Data: patent publication US9695155B2, “Herbicidal substituted pyrimidinyloxy benzene compounds” (E. I. DU PONT DE NEMOURS AND COMPANY, priority 2013, dated 2017)

What was measured:
[1] = tested on: galium; assay: Test C preemergence; format: in vivo, Galium aparine; details: Galium, pre-emergence
How it was run: (§1)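 Sown in loam/sand → sprayed pre-emergence; or grown to 1–4 leaves in peat mix → sprayed post-emergence. Same solvent/surfactant formulation both ways. Greenhouse 13–15 d. Score 0–100 visual.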

[2] = tested on: ragweed; assay: Test C preemergence; format: in vivo, Ambrosia elatior; details: Ambrosia artemisiifolia, pre-emergence
How it was run: as §1

[3] = tested on: ragweed; assay: Test C postemergence; format: in vivo, Ambrosia elatior; details: Ambrosia artemisiifolia, post-emergence
How it was run: as §1

[4] = tested on: velvetleaf; assay: Test C preemergence; format: in vivo, Abutilon theophrasti; details: Abutilon theophrasti, pre-emergence
How it was run: as §1

[5] = tested on: large (Lg) crabgrass; assay: Test C postemergence; format: in vivo, Digitaria sanguinalis; details: Digitaria sanguinalis, post-emergence
How it was run: as §1

[6] = tested on: lambsquarters; assay: Test C preemergence; format: in vivo, Chenopodium album; details: Chenopodium album, pre-emergence
How it was run: as §1

[7] = tested on: giant foxtail; assay: Test C postemergence; format: in vivo, Setaria faberii; details: Setaria faberi, post-emergence
How it was run: as §1

[8] = tested on: wheat; assay: Test A preemergence; format: in vivo, Triticum aestivum
How it was run: (§2)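 Injury scores run from 0, no effect, to 100, complete control, judged by eye against untreated plants roughly 10 days after treatment. Chemicals carried a surfactant in a non-phytotoxic solvent and went onto loam–sand soil preemergence or onto one- to two-leaf seedlings postemergence.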

[9] = tested on: lambsquarters; assay: Test C postemergence; format: in vivo, Chenopodium album; details: Chenopodium album, post-emergence
How it was run: as §1

[10] = tested on: pigweed; assay: Test A postemergence; format: in vivo, Amaranthus retroflexus; details: Amaranthus retroflexus, post-emergence
How it was run: as §2

[11] = tested on: morningglory; assay: Test C postemergence; format: in vivo, Ipomoea coccinea; details: Ipomoea, post-emergence
How it was run: as §1

[12] = tested on: soybean; assay: Test C postemergence; format: in vivo, Glycine max; details: Glycine max, post-emergence
How it was run: as §1

[13] = tested on: corn; assay: Test C preemergence; format: in vivo, Zea mays; details: Zea mays, pre-emergence, preemergence, scale 0 (no effect) to 100 (complete control), read-out: Corn plant response rating
How it was run: as §1

[14] = tested on: pigweed; assay: Test C postemergence; format: in vivo, Amaranthus retroflexus; details: Amaranthus retroflexus, post-emergence
How it was run: as §1

[15] = tested on: corn; assay: Test A postemergence; format: in vivo, Zea mays; details: Zea mays, post-emergence, 240 h
How it was run: as §2

[16] = tested on: waterhemp; assay: Test C postemergence; format: in vivo, Amaranthus rudis; details: Amaranthus tuberculatus, post-emergence
How it was run: as §1

[17] = tested on: giant foxtail; assay: Test A postemergence; format: in vivo, Setaria faberii; details: Setaria faberi, post-emergence, 240 h
How it was run: as §2

[18] = tested on: morningglory; assay: Test C preemergence; format: in vivo, Ipomoea coccinea; details: Ipomoea, pre-emergence
How it was run: as §1

[19] = 125 g ai/ha, 0 to 100 scale where 0 is no effect and 100 is complete control

Compound: N#Cc1cccc(Oc2ncc(Br)cn2)c1-n1cc(C(F)(F)F)cn1 [Compound 59, 3-[(5-bromo-2-pyrimidinyl)oxy]-2-[4-(trifluoromethyl)-1H-pyrazol-1-yl]benzonitrile]
- pest or weed control at 62 g/ha ([1]; 62 g ai/ha, preemergence, scale 0 (no effect) to 100 (complete control), read-out: Galium plant response rating): 100%
- pest or weed control at 125 g/ha ([1]; 125 g ai/ha, preemergence, scale 0 (no effect) to 100 (complete control), read-out: Galium plant response rating): 100%
- pest or weed control at 250 g/ha ([1]; 250 g ai/ha, preemergence, scale 0 (no effect) to 100 (complete control), read-out: Galium plant response rating): 100%
- pest or weed control at 31 g/ha ([1]; Preemergence, 31 g ai/ha, scale 0 to 100, 0 no effect, 100 complete control, read-out: Plant response rating, Galium): 100%
- pest or weed control at 62 g/ha ([2]; 62 g ai/ha, preemergence, scale 0 (no effect) to 100 (complete control), read-out: Ragweed plant response rating): 95%
- pest or weed control at 125 g/ha ([2]; 125 g ai/ha, preemergence, scale 0 (no effect) to 100 (complete control), read-out: Ragweed plant response rating): 100%
- pest or weed control at 250 g/ha ([2]; 250 g ai/ha, preemergence, scale 0 (no effect) to 100 (complete control), read-out: Ragweed plant response rating): 100%
- pest or weed control at 31 g/ha ([2]; Preemergence, 31 g ai/ha, scale 0 to 100, 0 no effect, 100 complete control, read-out: Plant response rating, Ragweed): 90%
- pest or weed control at 125 g/ha ([3]; 125 g ai/ha, postemergence, read-out: Plant response rating (0 to 100), Ragweed): 25%
- pest or weed control at 250 g/ha ([3]; 250 g ai/ha, postemergence, read-out: Plant response rating (0 to 100), Ragweed): 55%
- pest or weed control at 31 g/ha ([3]; Postemergence, 31 g ai/ha, scale 0 to 100 (0 no effect, 100 complete control), 13 to 15 days, read-out: Plant response rating, Ragweed): 10%
- pest or weed control at 62 g/ha ([3]; Postemergence, 62 g ai/ha, scale 0 to 100 (0 no effect, 100 complete control), read-out: Plant response rating, Ragweed): 25%
- pest or weed control at 62 g/ha ([4]; 62 g ai/ha, preemergence, scale 0 (no effect) to 100 (complete control), read-out: Velvetleaf plant response rating): 100%
- pest or weed control at 125 g/ha ([4]; 125 g ai/ha, preemergence, scale 0 (no effect) to 100 (complete control), read-out: Velvetleaf plant response rating): 100%
- pest or weed control at 250 g/ha ([4]; 250 g ai/ha, preemergence, scale 0 (no effect) to 100 (complete control), read-out: Velvetleaf plant response rating): 100%
- pest or weed control at 31 g/ha ([4]; Preemergence, 31 g ai/ha, scale 0 to 100, 0 no effect, 100 complete control, read-out: Plant response rating, Velvetleaf): 100%
- pest or weed control at 125 g/ha ([5]; 125 g ai/ha, postemergence, read-out: Plant response rating (0 to 100), Crabgrass, Large): 30%
- pest or weed control at 250 g/ha ([5]; 250 g ai/ha, postemergence, read-out: Plant response rating (0 to 100), Crabgrass, Large): 40%
- pest or weed control at 31 g/ha ([5]; Postemergence, 31 g ai/ha, scale 0 to 100 (0 no effect, 100 complete control), 13 to 15 days, read-out: Plant response rating, Crabgrass, Large): 10%
- pest or weed control at 62 g/ha ([5]; Postemergence, 62 g ai/ha, scale 0 to 100 (0 no effect, 100 complete control), read-out: Plant response rating, Crabgrass, Large): 10%
- pest or weed control at 62 g/ha ([6]; 62 g ai/ha, preemergence, scale 0 (no effect) to 100 (complete control), read-out: Lambsquarters plant response rating): 100%
- pest or weed control at 125 g/ha ([6]; 125 g ai/ha, preemergence, scale 0 (no effect) to 100 (complete control), read-out: Lambsquarters plant response rating): 100%
- pest or weed control at 250 g/ha ([6]; 250 g ai/ha, preemergence, scale 0 (no effect) to 100 (complete control), read-out: Lambsquarters plant response rating): 100%
- pest or weed control at 31 g/ha ([6]; Preemergence, 31 g ai/ha, scale 0 to 100, 0 no effect, 100 complete control, read-out: Plant response rating, Lambsquarters): 100%
- pest or weed control at 125 g/ha ([7]; 125 g ai/ha, postemergence, read-out: Plant response rating (0 to 100), Foxtail, Giant): 45%
- pest or weed control at 250 g/ha ([7]; 250 g ai/ha, postemergence, read-out: Plant response rating (0 to 100), Foxtail, Giant): 90%
- pest or weed control at 31 g/ha ([7]; Postemergence, 31 g ai/ha, scale 0 to 100 (0 no effect, 100 complete control), 13 to 15 days, read-out: Plant response rating, Foxtail, Giant): 10%
- pest or weed control at 62 g/ha ([7]; Postemergence, 62 g ai/ha, scale 0 to 100 (0 no effect, 100 complete control), read-out: Plant response rating, Foxtail, Giant): 45%
- Plant response rating, Wheat [8, 19]: 20
- plant injury at 500 g/ha ([8]; Triticum aestivum, pre-emergence, 240 h, 500 g ai/ha, 0 to 100 scale, 0 no effect, 100 complete control, approx. 10 days, read-out: Wheat plant response rating): 40%
- pest or weed control at 125 g/ha ([9]; 125 g ai/ha, postemergence, read-out: Plant response rating (0 to 100), Lambsquarters): 90%
- pest or weed control at 250 g/ha ([9]; 250 g ai/ha, postemergence, read-out: Plant response rating (0 to 100), Lambsquarters): 90%
- pest or weed control at 31 g/ha ([9]; Postemergence, 31 g ai/ha, scale 0 to 100 (0 no effect, 100 complete control), 13 to 15 days, read-out: Plant response rating, Lambsquarters): 70%
- pest or weed control at 62 g/ha ([9]; Postemergence, 62 g ai/ha, scale 0 to 100 (0 no effect, 100 complete control), read-out: Plant response rating, Lambsquarters): 80%
- pest or weed control at 125 g/ha ([10]; 125 g ai/ha, 0 to 100 scale where 0 is no effect and 100 is complete control, read-out: Plant response rating, Pigweed): 100%
- pest or weed control at 500 g/ha ([10]; 240 h, 500 g ai/ha, 0 to 100 scale, 0 no effect, 100 complete control, read-out: Plant response rating Pigweed): 100%
- pest or weed control at 125 g/ha ([11]; 125 g ai/ha, postemergence, read-out: Plant response rating (0 to 100), Morningglory): 95%
- pest or weed control at 250 g/ha ([11]; 250 g ai/ha, postemergence, read-out: Plant response rating (0 to 100), Morningglory): 95%
- pest or weed control at 31 g/ha ([11]; Postemergence, 31 g ai/ha, scale 0 to 100 (0 no effect, 100 complete control), 13 to 15 days, read-out: Plant response rating, Morningglory): 80%
- pest or weed control at 62 g/ha ([11]; Postemergence, 62 g ai/ha, scale 0 to 100 (0 no effect, 100 complete control), read-out: Plant response rating, Morningglory): 85%
- Soybean plant response rating (crop injury, 0-100 scale) at 125 g/ha ([12]; 125 g ai/ha, postemergence, read-out: Plant response rating (0 to 100), Soybean): 98%
- Soybean plant response rating (crop injury, 0-100 scale) at 250 g/ha ([12]; 250 g ai/ha, postemergence): 98%
- Soybean plant response rating (crop injury, 0-100 scale) at 31 g/ha ([12]; Postemergence, 31 g ai/ha, scale 0 to 100 (0 no effect, 100 complete control), 13 to 15 days): 75%
- Soybean plant response rating (crop injury, 0-100 scale) at 62 g/ha ([12]; Postemergence, 62 g ai/ha, scale 0 to 100 (0 no effect, 100 complete control)): 85%
- plant injury at 62 g/ha ([13]; 62 g ai/ha): 55%
- plant injury at 125 g/ha ([13]; 125 g ai/ha): 75%
- plant injury at 250 g/ha ([13]; 250 g ai/ha): 90%
- pest or weed control at 125 g/ha ([14]; 125 g ai/ha, postemergence, read-out: Plant response rating (0 to 100), Pigweed): 95%
- pest or weed control at 250 g/ha ([14]; 250 g ai/ha, postemergence, read-out: Plant response rating (0 to 100), Pigweed): 98%
- pest or weed control at 31 g/ha ([14]; Postemergence, 31 g ai/ha, scale 0 to 100 (0 no effect, 100 complete control), 13 to 15 days, read-out: Plant response rating, Pigweed): 80%
- pest or weed control at 62 g/ha ([14]; Postemergence, 62 g ai/ha, scale 0 to 100 (0 no effect, 100 complete control), read-out: Plant response rating, Pigweed): 90%
- Corn plant response rating (crop injury, 0 = no effect, 100 = complete kill) at 125 g/ha [15, 19]: 60%
- plant injury at 500 g/ha ([15]; 500 g ai/ha, 0 to 100 scale, 0 no effect, 100 complete control, read-out: Plant response rating Corn): 100%
- pest or weed control at 125 g/ha ([16]; 125 g ai/ha, postemergence, read-out: Plant response rating (0 to 100), Waterhemp): 90%
- pest or weed control at 250 g/ha ([16]; 250 g ai/ha, postemergence, read-out: Plant response rating (0 to 100), Waterhemp): 98%
- pest or weed control at 31 g/ha ([16]; Postemergence, 31 g ai/ha, scale 0 to 100 (0 no effect, 100 complete control), 13 to 15 days, read-out: Plant response rating, Waterhemp): 85%
- pest or weed control at 62 g/ha ([16]; Postemergence, 62 g ai/ha, scale 0 to 100 (0 no effect, 100 complete control), read-out: Plant response rating, Waterhemp): 85%
- pest or weed control at 125 g/ha ([17]; 125 g ai/ha, 0 to 100 scale where 0 is no effect and 100 is complete control, read-out: Plant response rating, Foxtail, Giant): 100%
- pest or weed control at 500 g/ha ([17]; 500 g ai/ha, 0 to 100 scale, 0 no effect, 100 complete control, read-out: Plant response rating Foxtail, Giant): 100%
- pest or weed control at 62 g/ha ([18]; 62 g ai/ha, preemergence, scale 0 (no effect) to 100 (complete control), read-out: Morningglory plant response rating): 100%
- pest or weed control at 125 g/ha ([18]; 125 g ai/ha, preemergence, scale 0 (no effect) to 100 (complete control), read-out: Morningglory plant response rating): 100%
- pest or weed control at 250 g/ha ([18]; 250 g ai/ha, preemergence, scale 0 (no effect) to 100 (complete control), read-out: Morningglory plant response rating): 100%
- pest or weed control at 31 g/ha ([18]; Preemergence, 31 g ai/ha, scale 0 to 100, 0 no effect, 100 complete control, read-out: Plant response rating, Morningglory): 95%
